# Results published in patent US20210255193A1, “LYSINE REACTIVE PROBES AND USES THEREOF” (The Scripps Research Institute, priority 2017, published 2021).
# How the values were obtained:
# Test in all cases: competitive isoTOP-ABPP
# Assay type in all cases: binding
# [1] = target: T1, CUL2 Cullin-2 (Homo sapiens, UniProt Q13617); conditions: 50 uM, in vitro; for R value (DMSO/fragment) for probe 1 labeling: Q13617_K489; for R value (DMSO/fragment) for probe 1 labeling / isoTOP-ABPP reactivity ratio at lysine Q13617_K489: 231 sol; for isoTOP-ABPP ratio (R) at liganded lysine Q13617_K489: sol, 231
# T1 construct: isoTOP-ABPP experiments performed in cell lysates (in vitro); endogenous in cells; host or cells: soluble proteome of human cancer cell lines (MDA-MB-231, Ramos, Jurkat)
# T1 sequence (Q13617 whole entry, the tested form may be a part): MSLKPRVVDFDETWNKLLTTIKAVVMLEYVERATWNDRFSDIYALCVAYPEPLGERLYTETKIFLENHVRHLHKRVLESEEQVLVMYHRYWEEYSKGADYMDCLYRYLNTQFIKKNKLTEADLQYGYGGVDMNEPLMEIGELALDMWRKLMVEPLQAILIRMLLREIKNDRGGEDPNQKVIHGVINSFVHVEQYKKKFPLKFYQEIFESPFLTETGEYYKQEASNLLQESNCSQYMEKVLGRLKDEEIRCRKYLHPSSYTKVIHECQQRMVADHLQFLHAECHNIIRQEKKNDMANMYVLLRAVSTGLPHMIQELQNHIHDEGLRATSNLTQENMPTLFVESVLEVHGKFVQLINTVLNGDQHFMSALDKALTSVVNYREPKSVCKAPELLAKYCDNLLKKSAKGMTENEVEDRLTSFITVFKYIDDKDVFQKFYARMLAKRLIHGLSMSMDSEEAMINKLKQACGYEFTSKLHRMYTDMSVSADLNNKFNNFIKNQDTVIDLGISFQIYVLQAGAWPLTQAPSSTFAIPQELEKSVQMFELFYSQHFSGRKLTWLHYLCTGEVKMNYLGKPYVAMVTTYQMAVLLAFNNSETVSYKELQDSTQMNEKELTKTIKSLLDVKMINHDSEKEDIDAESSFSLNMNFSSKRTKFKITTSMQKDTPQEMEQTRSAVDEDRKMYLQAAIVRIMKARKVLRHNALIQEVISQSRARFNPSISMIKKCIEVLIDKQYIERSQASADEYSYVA
# How it was run: (§1)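 Readout: isotopic light/heavy MS1 peak-area ratio (R, DMSO heavy over compound light), median across peptides sharing a modified lysine. Lysate received fragment (activated esters 50 μM, guanidinylating agents 100 μM final) or DMSO, then 0.1 mM STP-alkyne probe for 1 h at ambient temperature.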
# [2] = target: T2, ENOPH1 Enolase-phosphatase E1 (Homo sapiens, UniProt Q9UHY7); conditions: 50 uM, in vitro; for R value (DMSO/fragment) for probe 1 labeling: Q9UHY7_K111; for R value (DMSO/fragment) for probe 1 labeling / isoTOP-ABPP reactivity ratio at lysine Q9UHY7_K111: 231 sol; for isoTOP-ABPP ratio (R) at liganded lysine Q9UHY7_K111: sol, 231
# T2 construct: endogenous in cells; host or cells: MDA-MB-231 (soluble fraction of lysate)
# T2 sequence (Q9UHY7 whole entry, the tested form may be a part): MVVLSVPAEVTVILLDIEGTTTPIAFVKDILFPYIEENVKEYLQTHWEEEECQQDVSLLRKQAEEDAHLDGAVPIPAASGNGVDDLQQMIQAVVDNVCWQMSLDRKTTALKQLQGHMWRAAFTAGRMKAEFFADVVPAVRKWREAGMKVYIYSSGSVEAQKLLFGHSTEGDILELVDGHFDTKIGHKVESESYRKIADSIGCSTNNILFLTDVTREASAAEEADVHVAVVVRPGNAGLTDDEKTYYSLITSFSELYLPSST
# How it was run: as §1
# [3] = target: T3, ERAP1 Endoplasmic reticulum aminopeptidase 1 (Homo sapiens, UniProt Q9NZ08); conditions: 50 uM, in vitro; for R value (DMSO/fragment) for probe 1 labeling: Q9NZ08_K685; for R value (DMSO/fragment) for probe 1 labeling / isoTOP-ABPP reactivity ratio at lysine Q9NZ08_K685: 231 sol; for isoTOP-ABPP ratio (R) at liganded lysine Q9NZ08_K685: sol, 231
# T3 construct: endogenous in cells; host or cells: MDA-MB-231 lysate
# T3 sequence (Q9NZ08 whole entry, the tested form may be a part): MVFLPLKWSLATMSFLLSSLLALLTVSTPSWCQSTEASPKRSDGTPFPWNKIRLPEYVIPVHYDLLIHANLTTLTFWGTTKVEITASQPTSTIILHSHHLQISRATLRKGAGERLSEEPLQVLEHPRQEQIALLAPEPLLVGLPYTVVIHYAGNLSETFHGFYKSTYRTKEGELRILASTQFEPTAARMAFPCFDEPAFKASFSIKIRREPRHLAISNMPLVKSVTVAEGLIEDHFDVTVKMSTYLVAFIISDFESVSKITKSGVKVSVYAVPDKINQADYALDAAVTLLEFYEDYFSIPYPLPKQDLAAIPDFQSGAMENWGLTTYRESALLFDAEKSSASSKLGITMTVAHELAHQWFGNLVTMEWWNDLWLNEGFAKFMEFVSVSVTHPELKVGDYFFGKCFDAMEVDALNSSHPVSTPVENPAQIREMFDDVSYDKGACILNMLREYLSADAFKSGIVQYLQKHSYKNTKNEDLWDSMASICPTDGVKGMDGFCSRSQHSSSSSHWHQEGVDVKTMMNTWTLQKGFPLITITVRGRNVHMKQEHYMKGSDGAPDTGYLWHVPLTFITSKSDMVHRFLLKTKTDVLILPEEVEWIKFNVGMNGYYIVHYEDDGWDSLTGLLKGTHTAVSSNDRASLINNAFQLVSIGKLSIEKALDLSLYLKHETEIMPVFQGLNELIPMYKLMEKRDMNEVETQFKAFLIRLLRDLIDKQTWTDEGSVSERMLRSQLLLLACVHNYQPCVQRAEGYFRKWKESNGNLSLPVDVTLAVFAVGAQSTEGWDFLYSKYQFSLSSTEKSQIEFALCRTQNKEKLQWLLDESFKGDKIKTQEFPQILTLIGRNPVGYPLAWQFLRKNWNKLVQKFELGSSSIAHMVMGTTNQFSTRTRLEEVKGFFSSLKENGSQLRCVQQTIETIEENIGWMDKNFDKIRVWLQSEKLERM
# How it was run: as §1
# [4] = target: T4, GSTT2B Glutathione S-transferase theta-2B (Homo sapiens, UniProt P0CG30); conditions: 50 uM, in vitro; for R value (DMSO/fragment) for probe 1 labeling: P0CG30_K53; for R value (DMSO/fragment) for probe 1 labeling / isoTOP-ABPP reactivity ratio at lysine P0CG30_K53: 231 sol; for isoTOP-ABPP ratio (R) at liganded lysine P0CG30_K53: sol, 231
# T4 construct: isoTOP-ABPP experiments performed in cell lysates (in vitro); endogenous in cells; host or cells: MDA-MB-231 soluble lysate
# T4 sequence (P0CG30 1-244): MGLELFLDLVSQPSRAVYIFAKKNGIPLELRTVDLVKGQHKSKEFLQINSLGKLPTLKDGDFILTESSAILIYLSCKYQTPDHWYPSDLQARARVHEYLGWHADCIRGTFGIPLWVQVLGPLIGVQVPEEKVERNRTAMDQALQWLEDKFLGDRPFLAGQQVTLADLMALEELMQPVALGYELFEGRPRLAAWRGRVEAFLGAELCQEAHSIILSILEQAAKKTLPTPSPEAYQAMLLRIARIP
# How it was run: as §1
# [5] = target: T5, KIAA1967 DBIRD complex subunit KIAA1967 (Homo sapiens, UniProt Q8N163); conditions: 50 uM, in vitro; for R value (DMSO/fragment) for probe 1 labeling / isoTOP-ABPP reactivity ratio at lysine Q8N163_K97 / isoTOP-ABPP reactivity ratio at lysine Q8N163_K112: 231 sol; for isoTOP-ABPP ratio (R) at liganded lysine Q8N163_K97 / isoTOP-ABPP ratio (R) at liganded lysine Q8N163_K112: sol, 231
# T5 construct: isoTOP-ABPP experiments performed in cell lysates (in vitro); endogenous in cells; host or cells: soluble proteome of human cancer cell lines (MDA-MB-231; Ramos and Jurkat also prepared)
# T5 sequence (Q8N163 whole entry, the tested form may be a part, one chain of several): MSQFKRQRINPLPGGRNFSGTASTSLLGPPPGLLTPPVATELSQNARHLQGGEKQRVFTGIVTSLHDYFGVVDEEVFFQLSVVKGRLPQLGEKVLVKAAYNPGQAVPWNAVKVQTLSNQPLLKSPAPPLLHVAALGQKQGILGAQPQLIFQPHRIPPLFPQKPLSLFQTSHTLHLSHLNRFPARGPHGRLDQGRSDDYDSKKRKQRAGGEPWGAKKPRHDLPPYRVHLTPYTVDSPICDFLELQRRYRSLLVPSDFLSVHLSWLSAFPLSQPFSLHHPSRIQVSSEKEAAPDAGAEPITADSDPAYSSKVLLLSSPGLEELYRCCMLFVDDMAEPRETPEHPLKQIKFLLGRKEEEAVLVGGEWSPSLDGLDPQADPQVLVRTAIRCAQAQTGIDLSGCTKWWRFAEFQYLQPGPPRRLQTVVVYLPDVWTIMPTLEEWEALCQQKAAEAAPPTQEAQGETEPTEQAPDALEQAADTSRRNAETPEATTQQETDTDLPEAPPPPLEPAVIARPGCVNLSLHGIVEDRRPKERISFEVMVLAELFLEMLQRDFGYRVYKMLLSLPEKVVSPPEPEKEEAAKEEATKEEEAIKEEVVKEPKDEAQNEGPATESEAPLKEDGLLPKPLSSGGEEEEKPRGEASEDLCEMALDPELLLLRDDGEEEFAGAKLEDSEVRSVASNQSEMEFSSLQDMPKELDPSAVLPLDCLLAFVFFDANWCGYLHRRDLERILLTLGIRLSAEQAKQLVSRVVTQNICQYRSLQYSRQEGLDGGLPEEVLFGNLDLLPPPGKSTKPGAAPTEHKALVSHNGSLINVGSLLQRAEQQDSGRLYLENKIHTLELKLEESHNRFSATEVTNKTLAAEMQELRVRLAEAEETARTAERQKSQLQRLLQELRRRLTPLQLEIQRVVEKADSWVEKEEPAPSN
# How it was run: as §1
# [6] = target: T6, MTOR Serine/threonine-protein kinase mTOR (Homo sapiens, UniProt P42345); conditions: 50 uM, in vitro; for R value (DMSO/fragment) for probe 1 labeling: P42345_K2066; for R value (DMSO/fragment) for probe 1 labeling / isoTOP-ABPP reactivity ratio at lysine P42345_K2066: 231 sol; for isoTOP-ABPP ratio (R) at liganded lysine P42345_K2066: sol, 231
# T6 construct: isoTOP-ABPP experiments performed in cell lysates (in vitro); endogenous in cells; host or cells: soluble proteome of human cancer cell lines (MDA-MB-231; Ramos and Jurkat also prepared)
# How it was run: as §1
Structure (SMILES),R value (DMSO/fragment) for probe 1 labeling [1],R value (DMSO/fragment) for probe 1 labeling [2],R value (DMSO/fragment) for probe 1 labeling [3],R value (DMSO/fragment) for probe 1 labeling [4],R value (DMSO/fragment) for probe 1 labeling ([5]; Q8N163_K97),R value (DMSO/fragment) for probe 1 labeling ([5]; Q8N163_K112),R value (DMSO/fragment) for probe 1 labeling [6],isoTOP-ABPP reactivity ratio at lysine Q13617_K489 [1],isoTOP-ABPP reactivity ratio at lysine Q9NZ08_K685 [3],isoTOP-ABPP reactivity ratio at lysine P0CG30_K53 [4],isoTOP-ABPP reactivity ratio at lysine Q8N163_K97 [5],isoTOP-ABPP reactivity ratio at lysine Q8N163_K112 [5],isoTOP-ABPP ratio (R) at liganded lysine P0CG30_K53 [4],also measured
"O=C(CCc1cn(-c2ccccc2)nc1-c1ccccc1)Oc1c(F)c(F)c(F)c(F)c1F [fragment 19, Pentafluorophenyl 3-(1,3-diphenyl-1H-pyrazol-4-yl)propanoate]",0.8,1.0,1.1,1.0,0.9,1.2,0.9,–,–,–,–,–,–,–
"O=C(Oc1c(F)c(F)c(F)c(F)c1F)C(c1ccccc1)c1ccccc1 [fragment 20, Pentafluorophenyl 2,2-diphenylacetate]",0.8,1.0,1.5,1.0,0.9,1.0,1.0,–,–,–,–,–,–,–
"O=C(Oc1c(F)c(F)c(F)c(F)c1F)c1cc(C(F)(F)F)cc(C(F)(F)F)c1 [fragment 21, Pentafluorophenyl 3,5-bis(trifluoromethyl)benzoate]",0.9,1.0,1.4,0.9,0.7,1.0,0.7,–,–,–,–,–,–,–
"Cn1cc(CC(=O)Oc2c(F)c(F)c(F)c(F)c2F)c2ccccc21 [fragment 22, Pentafluorophenyl 2-(1-methyl-1H-indol-3-yl)acetate]",1.0,1.4,2.2,1.0,1.0,1.1,2.8,–,–,–,–,–,–,–
"COc1cc(CCC(=O)Oc2c(F)c(F)c(F)c(F)c2F)cc(OC)c1OC [fragment 23, Pentafluorophenyl 3-(3,4,5-trimethoxyphenyl)propanoate]",0.9,1.3,1.7,0.9,0.8,1.1,1.1,–,–,–,–,–,–,–
"O=C(Oc1c(F)c(F)c(F)c(F)c1F)C1CCN(C(=O)OCc2ccccc2)CC1 [fragment 24, 1-Benzyl 4-(pentafluorophenyl) piperidine-1,4-dicarboxylate]",–,–,–,–,–,–,–,0.9,1.6,1.0,0.9,1.0,–,isoTOP-ABPP reactivity ratio at lysine Q9UHY7_K111 [2]: 1.4; isoTOP-ABPP reactivity ratio at lysine P42345_K2066 [6]: 1.0
"O=C(Oc1c(F)c(F)c(F)c(F)c1F)c1ccc2ccccc2n1 [fragment 25, Pentafluorophenyl quinoline-2-carboxylate]",–,–,–,–,–,–,–,1.1,1.9,1.0,0.7,1.1,–,isoTOP-ABPP reactivity ratio at lysine Q9UHY7_K111 [2]: 1.1
"O=C(CCc1coc2cc(F)ccc2c1=O)Oc1c(F)c(F)c(F)c(F)c1F [fragment 26, Pentafluorophenyl 3-(7-fluoro-4-oxo-4H-chromen-3-yl)propanoate]",–,–,–,–,–,–,–,0.9,1.2,1.3,0.9,1.1,–,isoTOP-ABPP reactivity ratio at lysine Q9UHY7_K111 [2]: 1.3; isoTOP-ABPP reactivity ratio at lysine P42345_K2066 [6]: 2.8
"O=C(CN1C(=O)c2ccccc2C1=O)Oc1c(F)c(F)c(F)c(F)c1F [fragment 27, Pentafluorophenyl 2-(1,3-dioxoisoindolin-2-yl)acetate]",–,–,–,–,–,–,–,1.1,5.7,0.9,0.9,1.2,–,isoTOP-ABPP reactivity ratio at lysine Q9UHY7_K111 [2]: 1.5; isoTOP-ABPP reactivity ratio at lysine P42345_K2066 [6]: 2.5
"O=C(Oc1ccc([N+](=O)[O-])cc1[N+](=O)[O-])c1cc(C(F)(F)F)cc(C(F)(F)F)c1 [fragment 31, 2,4-Dinitrophenyl 3,5-bis(trifluoromethyl)benzoate]",–,–,–,–,–,–,–,1.1,1.6,0.8,0.9,1.0,–,isoTOP-ABPP reactivity ratio at lysine P42345_K2066 [6]: 1.1
"O=C(Oc1ccc([N+](=O)[O-])cc1[N+](=O)[O-])c1ccc2ccccc2n1 [fragment 35, 2,4-Dinitrophenyl quinoline-2-carboxylate]",–,–,–,–,–,–,–,–,–,–,–,–,4.1,isoTOP-ABPP ratio (R) at liganded lysine Q13617_K489 [1]: 0.9; isoTOP-ABPP ratio (R) at liganded lysine Q9UHY7_K111 [2]: 1.0; isoTOP-ABPP ratio (R) at liganded lysine Q8N163_K97 [5]: 0.8; isoTOP-ABPP ratio (R) at liganded lysine P42345_K2066 [6]: 1.1
"O=C(CC12CC3CC(CC(C3)C1)C2)Oc1ccc([N+](=O)[O-])cc1[N+](=O)[O-] [fragment 38, 2,4-Dinitrophenyl 2-(adamantan-1-yl)acetate]",–,–,–,–,–,–,–,–,–,–,–,–,0.8,isoTOP-ABPP ratio (R) at liganded lysine Q13617_K489 [1]: 1.4; isoTOP-ABPP ratio (R) at liganded lysine Q9UHY7_K111 [2]: 1.1; isoTOP-ABPP ratio (R) at liganded lysine Q9NZ08_K685 [3]: 1.0; isoTOP-ABPP ratio (R) at liganded lysine P42345_K2066 [6]: 1.1
"O=C(Oc1ccc([N+](=O)[O-])cc1[N+](=O)[O-])c1ccc(Oc2ccccc2)cc1 [fragment 39, 2,4-Dinitrophenyl 4-phenoxybenzoate]",–,–,–,–,–,–,–,–,–,–,–,–,0.7,isoTOP-ABPP ratio (R) at liganded lysine Q13617_K489 [1]: 20.0; isoTOP-ABPP ratio (R) at liganded lysine Q9UHY7_K111 [2]: 0.8; isoTOP-ABPP ratio (R) at liganded lysine Q9NZ08_K685 [3]: 1.0; isoTOP-ABPP ratio (R) at liganded lysine Q8N163_K97 [5]: 0.9; isoTOP-ABPP ratio (R) at liganded lysine Q8N163_K112 [5]: 1.1
"CC(C)(C)OC(=O)NCCCC(=O)Oc1ccc([N+](=O)[O-])cc1[N+](=O)[O-] [fragment 41, 2,4-Dinitrophenyl 4-((tert-butoxycarbonyl)amino)butanoate]",–,–,–,–,–,–,–,–,–,–,–,–,0.5,isoTOP-ABPP ratio (R) at liganded lysine Q13617_K489 [1]: 1.0; isoTOP-ABPP ratio (R) at liganded lysine Q9UHY7_K111 [2]: 1.1; isoTOP-ABPP ratio (R) at liganded lysine Q9NZ08_K685 [3]: 1.3; isoTOP-ABPP ratio (R) at liganded lysine Q8N163_K97 [5]: 1.0; isoTOP-ABPP ratio (R) at liganded lysine Q8N163_K112 [5]: 1.3
"O=C(Oc1ccc([N+](=O)[O-])cc1[N+](=O)[O-])C(c1ccccc1)(c1ccccc1)c1ccccc1 [fragment 42, 2,4-Dinitrophenyl 2,2,2-triphenylacetate]",–,–,–,–,–,–,–,–,–,–,–,–,1.0,isoTOP-ABPP ratio (R) at liganded lysine Q9NZ08_K685 [3]: 1.0; isoTOP-ABPP ratio (R) at liganded lysine Q8N163_K97 [5]: 1.0; isoTOP-ABPP ratio (R) at liganded lysine Q8N163_K112 [5]: 1.1
